Reference: PubChem BioAssay (NCI)
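Compound exposure: 48 hours, 5 concentrations, 96-well plates. Abbreviation: GI50, concentration required for 50% inhibition of growth. Definition used: TGI = concentration required for complete inhibition of growth.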

How the values were obtained:
Test in all cases: NCI-60 cell line screen, 48 h
TK-10 renal = test system: TK-10 renal
K-562 leukemia = test system: K-562 leukemia
NCI-H460 lung = test system: NCI-H460 lung
UACC-62 melanoma = test system: UACC-62 melanoma
MDA-MB-231 breast = test system: MDA-MB-231 breast
SR leukemia = test system: SR leukemia
ACHN renal = test system: ACHN renal
A498 renal = test system: A498 renal
DU-145 prostate = test system: DU-145 prostate
U251 CNS = test system: U251 CNS

| Structure (SMILES) | GI50 (TK-10 renal) | TGI (TK-10 renal) | GI50 (K-562 leukemia) | TGI (K-562 leukemia) | GI50 (NCI-H460 lung) | TGI (NCI-H460 lung) | GI50 (UACC-62 melanoma) | TGI (UACC-62 melanoma) | GI50 (MDA-MB-231 breast) | TGI (MDA-MB-231 breast) | GI50 (SR leukemia) | TGI (SR leukemia) | GI50 (ACHN renal) | TGI (ACHN renal) | GI50 (A498 renal) | TGI (A498 renal) | GI50 (DU-145 prostate) | TGI (DU-145 prostate) | GI50 (U251 CNS) | TGI (U251 CNS) |
| --- | --- | --- | --- | --- | --- | --- | --- | --- | --- | --- | --- | --- | --- | --- | --- | --- | --- | --- | --- | --- |
| Cc1cncc2cccc(S(=O)(=O)N3CCCNC[C@@H]3C)c12 | 9.18 µM | 84.4 µM | 50000 nM | > 100 µM | 8810 nM | > 100 µM | > 47000 nM | > 100 µM | 14100 nM | 74.2 µM | 3550 nM | > 91.2 µM | 14200 nM | > 100 µM | 1610 nM | 17.7 µM | 36100 nM | > 100 µM | 57200 nM | > 100 µM |
| Cc1cccc(Cc2cnc(NC(=O)/C=C/c3ccco3)s2)c1 | > 100 µM | > 100 µM | 34.7 nM | > 100 µM | 35.9 nM | > 100 µM | 54.2 nM | > 100 µM | 77.1 nM | > 73.1 µM | 34.2 nM | > 100 µM | 64.5 nM | > 100 µM | 199 nM | 3.93 µM | 38.2 nM | > 100 µM | 39.6 nM | > 100 µM |
| CO[C@H]1/C=C/C=C/C=C/C[C@H](OC(=O)[C@@H](C)NC(=O)C2CCCCC2)[C@H](C)[C@@H](O)/C(C)=C\CCC2=CC(=O)C=C(NC(=O)C1)C2=O | 0.274 µM | 2.31 µM | 177 nM | > 50 µM | 111 nM | 1.14 µM | 80.1 nM | 0.682 µM | 137 nM | 0.934 µM | 56.1 nM | > 50 µM | 223 nM | 1.31 µM | 282 nM | 2.33 µM | 127 nM | 1.4 µM | 98.5 nM | 0.953 µM |
| N#CSc1cc(-c2nc3ccccc3o2)ccc1N | 19.2 µM | 52.3 µM | 2550 nM | > 89.3 µM | 24000 nM | > 100 µM | 13600 nM | 30.8 µM | > 100000 nM | > 100 µM | 203 nM | > 100 µM | 19200 nM | 58.5 µM | 31200 nM | > 82.2 µM | > 67700 nM | > 100 µM | 11800 nM | 57.3 µM |
| NC(=S)c1cn(C2OC(CO)C(O)C2O)c2ncnc(N)c12 (stereo unspecified) | 0.185 µM | 0.827 µM | 199 nM |  | 212 nM | 8.15 µM | 124 nM | 0.406 µM | 152 nM | > 100 µM | 62.5 nM |  | 229 nM |  | 535 nM | 3.01 µM | 217 nM | 5.44 µM | 292 nM | 8.71 µM |
| O=C(O)c1ccccc1/C=C1/Nc2ccccc2C1=O |  | > 100 µM |  | > 100 µM |  | > 100 µM |  | > 100 µM |  | > 100 µM |  | > 100 µM |  | > 100 µM |  | > 100 µM |  | > 100 µM |  | > 100 µM |
| COc1ccc(C2C3=C(COC3=O)N(CCO)c3cc4c(cc32)CCC4)cc1OC (stereo unspecified) |  | > 50 µM | 470 nM | > 50 µM | 336 nM | > 29.5 µM | 318 nM | > 50 µM | 2520 nM | > 50 µM | 253 nM | > 50 µM | 4320 nM | > 50 µM | 242 nM | > 20 µM | 574 nM | 2.13 µM | 1150 nM | > 50 µM |
| CCCCOc1nc2ccccc2cc1C1CNC(=O)c2ccccc2N1 (stereo unspecified) | 5.92 µM | 22.1 µM | 1260 nM | 14.2 µM | 3160 nM | 11.5 µM | 1950 nM | 12.3 µM | 4780 nM | 26 µM | 1130 nM | 12.5 µM | 4310 nM | 17.8 µM | 807 nM | 5.3 µM | 3190 nM | 12 µM | 3350 nM | 14.2 µM |
| CCc1cc(Nc2nccc(-c3c(-c4ccc(OC)c(C(=O)Nc5c(F)cccc5F)c4)nc4ccccn34)n2)c(OC)cc1N1CCC(N2CCN(S(C)(=O)=O)CC2)CC1 | > 90.4 µM | > 100 µM | > 100000 nM | > 100 µM | > 71700 nM | > 100 µM | > 100000 nM | > 100 µM | 44300 nM | > 100 µM | > 100000 nM | > 100 µM | > 100000 nM | > 100 µM | > 100000 nM | > 100 µM | > 100000 nM | > 100 µM | > 100000 nM | > 100 µM |
| C=C1C(=O)O[C@H]2[C@H]1CC/C(COC(=O)c1ccc(Br)cc1)=C\CC[C@@]1(C)O[C@@H]21 | 1.9 µM | 3.33 µM | 1200 nM | 10.3 µM | 1990 nM | 4.3 µM | 1480 nM | 2.94 µM | 1730 nM | 3.51 µM | 343 nM | 4.75 µM | 1450 nM | 2.76 µM | 11000 nM | 23.7 µM | 1350 nM | 2.65 µM | 1550 nM | 2.98 µM |
| O=C(Nc1ccc(I)cc1F)c1cc(F)ccc1O | 1.59 µM | 24.2 µM | 407 nM | > 42.1 µM | 456 nM | > 27.7 µM | 259 nM | 0.853 µM | 513 nM | 4.69 µM | 413 nM | > 35.7 µM | 466 nM | > 100 µM | 163 nM | 0.634 µM | 655 nM | > 100 µM | 578 nM | > 100 µM |
| C/C(=C\COc1ccc2ccc(=O)oc2c1)CCC(=O)C(C)(C)O |  | > 100 µM |  | 46.8 µM |  | > 100 µM |  | 37.1 µM |  | > 100 µM |  | 47.4 µM |  | > 100 µM |  | 64.2 µM |  | > 100 µM |  | 47.4 µM |
| COc1cc2cc(Oc3ccc(NC(=O)Nc4cc(C(F)(F)F)cc(C(F)(F)F)c4)cc3)c(C)nc2cc1OCCN1CCCCC1 | 2.06 µM | 3.71 µM | 1500 nM | 3.31 µM | 1790 nM | 3.35 µM | 1820 nM | 3.31 µM | 1520 nM | 2.99 µM | 1750 nM | 5.79 µM | 1630 nM | 2.99 µM | 1750 nM | 3.23 µM | 1710 nM | 3.08 µM | 1790 nM | 3.41 µM |
| S=C1NC2=C(CCOc3c2ccc2ccccc32)C(c2ccc(Cl)cc2)N1 (stereo unspecified) | 35.4 µM | > 100 µM | 42900 nM | > 100 µM | 30800 nM | > 100 µM | 21700 nM | 76.4 µM | 10600 nM | 67.6 µM | 30600 nM | > 100 µM | 36400 nM | > 100 µM | 26200 nM | 68 µM | 27900 nM | > 100 µM | 35500 nM | > 100 µM |
